This is an account of results in patent US9409915B2, “Substituted aza-bicyclic imidazole derivatives useful as TRPM8 receptor modulators” (Janssen Pharmaceutica NV, priority 2010, dated 2016).

Structures are written as SMILES. Structures can show the parent of a compound that is named as a salt.

Assay [1] relates to Male Sprague Dawley rats. Nature of the assay: Inhibition of icilin-induced "wet-dog" shakes in rats. Format: in vivo. The following applies: 10 mg/kg p.o. in 10% HP-β-CD, 60 min before icilin 3.0 mg/kg i.p.; rat wet-dog shakes. Here is the method:
Male Sprague Dawley rats (220-450 g, Charles River Labs, n=6-9/treatment) were used to evaluate the ability of test compounds to block icilin-induced “wet-dog” shakes (WDS). The test compound was administered in 10% hydroxypropyl-β-cyclodextrin (HP-β-CD), p.o., 60 min before icilin. Icilin was then administered in 10% solutol/H2O, at 3.0 mg/kg, i.p., and spontaneous “wet-dog” shakes were counted 10 min following the icilin injection over a 10-min period.

In assay [2] the target is canine TRPM8 (Canis lupus familiaris, UniProt Q1A7N1). In words: In vitro canine TRPM8 functional assay (Ca2+-sensitive fluorescent dye, icilin activation). Type of assay: cell-based. The following applies: HEK293 cells stably expressing canine TRPM8, icilin-induced Ca2+ response; for inhibition at 0.2 µM: 0.2 μM compound; for IC50: eight-point concentration-response.
Sequence of canine TRPM8 (Q1A7N1 1-1104): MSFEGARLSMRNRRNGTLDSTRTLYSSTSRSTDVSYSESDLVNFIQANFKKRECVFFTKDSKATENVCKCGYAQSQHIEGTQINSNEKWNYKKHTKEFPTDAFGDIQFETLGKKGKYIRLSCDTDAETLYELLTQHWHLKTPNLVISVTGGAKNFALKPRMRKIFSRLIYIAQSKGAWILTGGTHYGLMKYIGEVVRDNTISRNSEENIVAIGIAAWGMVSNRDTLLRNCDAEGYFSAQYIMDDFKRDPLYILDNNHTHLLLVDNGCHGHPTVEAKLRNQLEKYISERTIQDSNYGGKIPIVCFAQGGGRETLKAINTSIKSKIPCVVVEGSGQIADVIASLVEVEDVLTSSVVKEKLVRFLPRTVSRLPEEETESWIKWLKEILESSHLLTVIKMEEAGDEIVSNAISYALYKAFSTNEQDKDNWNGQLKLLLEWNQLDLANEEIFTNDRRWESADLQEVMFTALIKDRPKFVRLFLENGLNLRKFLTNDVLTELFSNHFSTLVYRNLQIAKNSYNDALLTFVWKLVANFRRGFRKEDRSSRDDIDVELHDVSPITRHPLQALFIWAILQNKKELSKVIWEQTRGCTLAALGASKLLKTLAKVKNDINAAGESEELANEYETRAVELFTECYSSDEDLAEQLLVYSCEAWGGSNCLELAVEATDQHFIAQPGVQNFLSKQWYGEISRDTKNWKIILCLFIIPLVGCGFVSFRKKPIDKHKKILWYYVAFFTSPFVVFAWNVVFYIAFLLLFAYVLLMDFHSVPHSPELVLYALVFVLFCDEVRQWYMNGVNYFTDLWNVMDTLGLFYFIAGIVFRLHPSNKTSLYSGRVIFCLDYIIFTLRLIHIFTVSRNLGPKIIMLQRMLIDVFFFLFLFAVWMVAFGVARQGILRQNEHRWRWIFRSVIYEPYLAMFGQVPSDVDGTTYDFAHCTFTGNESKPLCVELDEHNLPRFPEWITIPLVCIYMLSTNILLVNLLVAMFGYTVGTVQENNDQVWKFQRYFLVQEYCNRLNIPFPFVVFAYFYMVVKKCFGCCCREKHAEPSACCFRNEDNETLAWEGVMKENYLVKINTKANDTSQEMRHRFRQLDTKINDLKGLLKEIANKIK

Regarding `COc1nc(-c2ccccc2Cl)cc2nc(-c3c(C#N)c(C(C)(C)C)nn3C)[nH]c12.CS(=O)(=O)O` [Compound 17, 3-tert-Butyl-5-[6-(2-chloro-phenyl)-4-methoxy-3H-imidazo[4,5-c]pyridine-2-yl]-1-methyl-1H-pyrazole-4-carbonitrile methanesulfonic acid salt], the “Icilin % Inhibition @ 1.5 h, 10 mg/kg” value in assay [1] amounted to 38%. Moreover, in assay [2], the inhibition at 0.2 µM is 99% and the IC50 stood at 0.0017 µM.
`Cn1nc(C(C)(C)C)cc1-c1nc2cc(-c3ccccc3F)ncc2[nH]1` [Compound 42, 2-(5-tert-Butyl-2-methyl-2H-pyrazol-3-yl)-6-(2-fluoro-phenyl)-3H-imidazo[4,5-c]pyridine hydrochloride]: in assay [2], the inhibition at 0.2 µM worked out at 75% and 0.059 µM corresponded to half-maximal inhibition (IC50).
For `COc1nc(-c2ccccc2Cl)cc2nc(-c3cc(C(C)(C)C)nn3C)[nH]c12` [Compound 12, 2-(5-tert-Butyl-2-methyl-2H-pyrazol-3-yl)-6-(2-chloro-phenyl)-4-methoxy-3H-imidazo[4,5-c]pyridine] the same measures were 101% and 0.011 µM.
